Test results taken from patent US8329674B2, “Film forming dental compositions and related methods” (3M Innovative Properties Company, priority 2007, dated 2012).
Where a name gives a salt, the structure may show the parent alone. Read-outs that look alike come from different tables or passages of the source.

Columns and labels:
Assay type in all cases: cell-based
[1] = system: Streptococcus mutans culture (ATCC 25175); assay: Quantitative Biofilm Inhibition Test; settings: for activity at 1 % w/w: Streptococcus mutans, ATCC25175, 20 h, read-out: OD Ratio
Description: Compounds of the dental compositions of the invention, and comparative compounds, were evaluated for biofilm inhibition activity. Composite dental restorative (available under the trade designation “FILTEK SUPREME” from 3M ESPE Dental Products, St. Paul, Minn.) was placed in a 15 millimeter by 1 millimeter stainless steel die. […] While the die containing the composite restorative was under compression, the composite was irradiated for two minutes using a Model ACE light source (available from SCHOTT North America, Inc., Auburn, N.Y.). The discs of cured composite restorative were then further cured using a Model UniXS light box (available from Heraeus Kulzer, Inc., Armonk, N.Y.) for 1.5 minutes.
The samples were incubated at 37° C. for approximately twenty hours, after which time the cured discs were removed from the broth and were gently rinsed with water. Each disc was placed in a separate test tube containing five milliliters of 1M aqueous sodium hydroxide solution, and each test tube was then sonicated for two minutes using a model SH1012-40-8 ultrasonic generator (manufactured by Branson Ultrasonics Corp., Danbury, Conn.) for two minutes to dislodge biofilm on the disc. The optical absorbance (optical density) of each aqueous sodium hydroxide solution was then measured at 550 nm using a Model ULTROSPEC III UV-visible spectrophotometer (manufactured by Pharmacia AB, Uppsala, Sweden). For each compound of the dental composition, five discs were separately incubated in broth and were evaluated separately to provide five optical density measurements. The average of the five optical density measurements was then calculated. […] The average optical density of the control or comparative samples was determined as described above. […] The ratio was considered to be proportional to the average amount of biofilm on the five cured discs, i.e., relatively low average optical density ratio was considered to be indicative of inhibition of biofilm formation. The ratio for the control was 100%.
(§1) The Quantitative Biofilm Inhibition Test was carried out using five compounds of the dental composition and eleven comparative compounds, each at a concentration of 1 weight percent. […] In addition, the Qualitative Biofilm Inhibition Test was carried out for each Example and Comparative Example, in which each disc was visually examined before it was placed in the tube containing the aqueous sodium hydroxide solution.

[2] = system: Streptococcus mutans culture (ATCC 25175); assay: Qualitative Biofilm Inhibition Test; design: key: +: refers to a visual assessment that a compound inhibited biofilm formation; −: refers to a visual assessment that either a compound did not inhibit biofilm formation, or that bacteria grew in the culture broth; settings: 1 weight percent compound; visible biofilm on disc after incubation and rinse
Description: as §1, with “During the procedure for the Quantitative Biofilm Inhibition Test, each cured disc was visually examined after it was removed from the broth (and rinsed with water) and before it was placed in a test tube containing five milliliters of 1M aqueous sodium hydroxide solution. The presence or absence of visible biofilm on a disc was noted. The” for “The”

[3] = system: Streptococcus mutans; assay: Bacterial Kill Rate Test
Description: Compounds of the dental compositions of the invention were evaluated for extent of bacterial kill in culture. Overnight cultures of Streptococcus mutans in brain heart infusion broth (10^6 CFU/mL) was mixed with a 0.1 weight percent, 0.5 weight percent, or 1.0 weight percent aqueous solution of each compound of the dental composition. After a period of 2, 5, or 10 minutes, 1.0 mL of the mixture was transferred via pipette into a first tube containing 9.0 mL of Letheen broth to provide a 10^−1 dilution. The contents of the tube were mixed using a vortex mixer. A 1.0 mL aliquot of this sample was transferred via pipette into a second tube containing 9.0 mL of Letheen broth to provide a 10^−2 dilution. A 0.1 mL aliquot of each dilution was plated and spread in duplicate on sheep blood agar in Petri dishes, using a “hockey stick” applicator, to provide 10^−2 and 10^−3 dilutions, respectively, on each plate. The plates were incubated at 37° C. for a period of 48 to 72 hours, and then the colony forming units were counted. The CFU counts were compared and the log reduction in the counts were calculated. In Table 3, the bacteria count reduction (log reduction) is the difference between the log of the initial bacteria count and the log of the bacteria count after 2, 5, and 10 minutes.

[4] = system: Streptococcus mutans culture (ATCC 25175); assay: Biofilm Inhibition Test: concentration of compound to inhibit biofilm formation at varied sucrose; settings: tested at 50 or 150 millimolar
Description: Compounds of the dental compositions of the invention, and comparative compounds, were evaluated for biofilm inhibition activity. Composite dental restorative (available under the trade designation “FILTEK SUPREME” from 3M ESPE Dental Products, St. Paul, Minn.) was placed in a 15 millimeter by 1 millimeter stainless steel die. The open ends of the die were then covered with polyester film and the die was subjected to a pressure of 68.95 MPa using a hydraulic press. While the die containing the composite restorative was under compression, the composite was irradiated for two minutes using a Model ACE light source (available from SCHOTT North America, Inc., Auburn, N.Y.). The discs of cured composite restorative were then further cured using a Model UniXS light box (available from Heraeus Kulzer, Inc., Armonk, N.Y.) for 1.5 minutes.
The cured discs of composite restorative were then immersed in ten milliliters of Streptococcus mutans culture (ATCC 25175; 10^6 CFU/mL) prepared in brain heart infusion broth that contained 1.0 weight percent sucrose and 1 weight percent of a compound of the dental composition. The samples were incubated at 37° C. for approximately twenty hours, after which time the cured discs were removed from the broth and were gently rinsed with water. Each disc was placed in a separate test tube containing five milliliters of 1M aqueous sodium hydroxide solution, and each test tube was then sonicated for two minutes using a model SH1012-40-8 ultrasonic generator (manufactured by Branson Ultrasonics Corp., Danbury, Conn.) for two minutes to dislodge biofilm on the disc. The optical absorbance (optical density) of each aqueous sodium hydroxide solution was then measured at 550 nm using a Model ULTROSPEC III UV-visible spectrophotometer (manufactured by Pharmacia AB, Uppsala, Sweden). For each compound of the dental composition, five discs were separately incubated in broth and were evaluated separately to provide five optical density measurements. The average of the five optical density measurements was then calculated. […] The average optical density of the control or comparative samples was determined as described above. The ratio, expressed as a percentage, of the average optical density for each compound sample to the average optical density for a control sample was calculated by dividing the average optical density for each compound sample by the average optical density for a control sample and multiplying the result by one hundred. The ratio was considered to be proportional to the average amount of biofilm on the five cured discs, i.e., relatively low average optical density ratio was considered to be indicative of inhibition of biofilm formation. The ratio for the control was 100%.
During the procedure for the Quantitative Biofilm Inhibition Test, each cured disc was visually examined after it was removed from the broth (and rinsed with water) and before it was placed in a test tube containing five milliliters of 1M aqueous sodium hydroxide solution. The presence or absence of visible biofilm on a disc was noted.
The Biofilm Inhibition Test was carried out, using four compounds of the dental composition, in broth containing 1.0, 2.5, or 5.0 weight percent sucrose and the exemplary compounds of the dental composition at a concentration of either 50 millimolar or 150 millimolar. In Table 2, the millimolar concentration of compound that inhibited biofilm formation is given for each concentration of sucrose. An entry of “n/t” means that the compound was not tested in broth containing the corresponding concentration of sucrose.

[5] = 1 weight percent compound, broth with 1.0 weight percent sucrose, approx. twenty hours at 37° C., average OD at 550 nm as percentage of control (100%)

Row | Compound | activity at 1 % w/w [1, 5] | Visual Assessment [2] | Bacteria Count Reduction (log reduction) ([3]; 0.1 wt % compound, 2 min.) | Bacteria Count Reduction (log reduction) ([3]; 0.1 wt % compound, 5 min.) | Bacteria Count Reduction (log reduction) ([3]; 0.1 wt % compound, 10 min.) | Bacteria Count Reduction (log reduction) ([3]; 0.5 wt % compound, 2 min.) | Bacteria Count Reduction (log reduction) ([3]; 0.5 wt % compound, 5 min.) | Bacteria Count Reduction (log reduction) ([3]; 0.5 wt % compound, 10 min.) | OD Ratio [1, 5] | further results
1 | O=C(CO)[C@@H](O)[C@@H](O)[C@H](O)CO [D-Tagatose] | 145% | − |  |  |  |  |  |  |  | 
2 | C[C@H](O)[C@@H](O)[C@@H](O)[C@H](O)C=O [Fucose] | 121% | − |  |  |  |  |  |  |  | 
3 | N[C@H]1C(O)O[C@H](CO)[C@H](O)[C@@H]1O (stereo partly drawn) [Galactosamine HCl, D-galactosamine] | 0% | + | 1.13 log reduction | 1.00 log reduction | 0.96 log reduction | 0.89 log reduction | 1.08 log reduction | 1.31 log reduction |  | 
4 | O=C[C@H](O)[C@@H](O)[C@@H](O)[C@H](O)CO [Galactose] | 87% | − |  |  |  |  |  |  |  | 
5 | N[C@H]1C(O)O[C@H](CO)[C@@H](O)[C@@H]1O (stereo partly drawn) [Glucosamine HCl, D-glucosamine] |  | + | 1.03 log reduction | 0.94 log reduction | 0.97 log reduction | 0.99 log reduction | 0.98 log reduction | 0.93 log reduction | 0% | Concentration of Compound to Inhibit Biofilm Formation ([4]; 1 wt% Sucrose): 50 mM; Concentration of Compound to Inhibit Biofilm Formation ([4]; 2.5 wt% Sucrose): 50 mM; Concentration of Compound to Inhibit Biofilm Formation ([4]; 5 wt% Sucrose): 50 mM; Bacteria Count Reduction (log reduction) ([3]; 1.0 wt % compound, 2 min.): 0.93 log reduction; Bacteria Count Reduction (log reduction) ([3]; 1.0 wt % compound, 5 min.): 0.99 log reduction; Bacteria Count Reduction (log reduction) ([3]; 1.0 wt % compound, 10 min.): 0.97 log reduction
6 | N[C@H]1C(O)O[C@H](CO)[C@@H](O)[C@@H]1O (stereo partly drawn) [Glucosamine Sulfate, D-glucosamine] |  | + | 0.95 log reduction | 0.75 log reduction | 0.87 log reduction | 0.78 log reduction | 0.80 log reduction | 0.81 log reduction | 2% | Concentration of Compound to Inhibit Biofilm Formation ([4]; 1 wt% Sucrose): 50 mM; Concentration of Compound to Inhibit Biofilm Formation ([4]; 5 wt% Sucrose): 150 mM; Bacteria Count Reduction (log reduction) ([3]; 1.0 wt % compound, 2 min.): 0.95 log reduction; Bacteria Count Reduction (log reduction) ([3]; 1.0 wt % compound, 5 min.): 0.89 log reduction; Bacteria Count Reduction (log reduction) ([3]; 1.0 wt % compound, 10 min.): 0.97 log reduction
7 | OC[C@H]1O[C@@H](O[C@H]2[C@H](O)[C@@H](O)C(O)O[C@@H]2CO)[C@H](O)[C@@H](O)[C@H]1O (stereo partly shown) [Lactose] |  | − |  |  |  |  |  |  |  | activity at 1 % w/w [1]: 82%
8 | OC[C@H]1O[C@@H](O[C@@H]2[C@@H](O)[C@H](O[C@@H]3[C@@H](O)[C@H](O[C@H]4[C@H](O)[C@@H](CO)OC(O)[C@@H]4O)O[C@H](CO)[C@H]3O)O[C@H](CO)[C@H]2O)[C@H](O)[C@@H](O)[C@@H]1O (stereo partly shown) [Laminaritetraose] |  | − |  |  |  |  |  |  | 97% | 
9 | CC(=O)N[C@H]1C(O)O[C@H](CO)[C@H](O)[C@@H]1O (stereo partly shown) [N-Acetylgalactosamine] | 138% | − |  |  |  |  |  |  |  | 
10 | CC(=O)N[C@H]1C(O)O[C@H](CO)[C@@H](O)[C@@H]1O (stereo partly shown) [N-Acetylglucosamine, reference compound] | 83% | − | 1.09 log reduction | 1.02 log reduction | 1.04 log reduction | 1.12 log reduction | 1.16 log reduction | 0.99 log reduction |  | Bacteria Count Reduction (log reduction) ([3]; 1.0 wt % compound, 2 min.): 1.05 log reduction; Bacteria Count Reduction (log reduction) ([3]; 1.0 wt % compound, 5 min.): 1.12 log reduction; Bacteria Count Reduction (log reduction) ([3]; 1.0 wt % compound, 10 min.): 1.06 log reduction
11 | CC(=O)N[C@@H]1C(O)O[C@H](CO)[C@@H](O)[C@@H]1O (stereo partly shown) [N-Acetylmannosamine, reference compound] | 51% | − |  |  |  | 0.93 log reduction | 1.54 log reduction | 1.61 log reduction |  | 
12 | OC[C@@H](O)[C@H](O)[C@@H](O)CO [Xylitol] | 123% | − |  |  |  |  |  |  |  | 
13 | OC[C@H]1O[C@@H](OC[C@H]2O[C@@H](O)[C@H](O)[C@@H](O)[C@@H]2O)[C@H](O)[C@@H](O)[C@@H]1O [beta-Gentiobiose] |  | − |  |  |  |  |  |  | 124% | 
